Measured values: patent US11491158B2, “N-(substituted-phenyl)-sulfonamide derivatives as kinase inhibitors” (Nerviano Medical Sciences S.R.L., priority 2016, dated 2022)

Target: PERK recombinant enzyme (cytoplasmic domain corresponding to residues 540-1115) (Homo sapiens (Human), UniProt Q9NZJ5)
Test: PERK enzyme assay, Method 1: ADP-Glo Kinase Assay (quantification of ADP formed)
Type: biochemical
Conditions: 52 microM ATP, 8 nM PERK, 300 microM elF2alpha peptide substrate, 60 minutes
Method: The biochemical activity of compounds was determined by incubation with PERK recombinant enzyme (cytoplasmic domain corresponding to residues 540-1115) and elF2alpha peptide substrate (Aminoacid sequence: LLSELSRRRIRSINK—SEQ ID Nr: 1; purchased from American Peptide Company, product #341923). This was followed by:
Method 1: Quantification of the ADP Formed from the Kinase Reaction by ADP-Glo™ Kinase Assay (Promega Cat. 9102). Utra Pure ATP was Included into ADP-Glo™ Kinase Assay Kit. […]
After 60 minutes, an equal volume (15 microL) of ADP-Glo™ Reagent was added to each well to terminate the kinase reaction and deplete the remaining ATP. After 40 minutes, 30 microL of Kinase Detection Reagent is added, which simultaneously converts ADP to ATP and allows the newly synthesized ATP to be measured using a coupled luciferase/luciferin reaction. After further 40 minutes luminescence was read by ViewLux Instrument (Perkin Elmer). The data are analyzed by GraphPad Prism software which provides sigmoidal fittings of the curves for IC50 determination using a 4 parameter logistic equation: y=bottom+(top−bottom)/(1+10^((log IC50−x)*slope)) where x is the logarithm of the inhibitor concentration, y is the response; y starts at bottom and goes to top with a sigmoid shape. Method 2: Quantification of the Phosphorylated Product Formed from the Kinase Reaction in Presence of ATP (Aldrich, Cat #A2620-9).

PERK recombinant enzyme (cytoplasmic domain corresponding to residues 540-1115), sequence (Q9NZJ5 540-1115): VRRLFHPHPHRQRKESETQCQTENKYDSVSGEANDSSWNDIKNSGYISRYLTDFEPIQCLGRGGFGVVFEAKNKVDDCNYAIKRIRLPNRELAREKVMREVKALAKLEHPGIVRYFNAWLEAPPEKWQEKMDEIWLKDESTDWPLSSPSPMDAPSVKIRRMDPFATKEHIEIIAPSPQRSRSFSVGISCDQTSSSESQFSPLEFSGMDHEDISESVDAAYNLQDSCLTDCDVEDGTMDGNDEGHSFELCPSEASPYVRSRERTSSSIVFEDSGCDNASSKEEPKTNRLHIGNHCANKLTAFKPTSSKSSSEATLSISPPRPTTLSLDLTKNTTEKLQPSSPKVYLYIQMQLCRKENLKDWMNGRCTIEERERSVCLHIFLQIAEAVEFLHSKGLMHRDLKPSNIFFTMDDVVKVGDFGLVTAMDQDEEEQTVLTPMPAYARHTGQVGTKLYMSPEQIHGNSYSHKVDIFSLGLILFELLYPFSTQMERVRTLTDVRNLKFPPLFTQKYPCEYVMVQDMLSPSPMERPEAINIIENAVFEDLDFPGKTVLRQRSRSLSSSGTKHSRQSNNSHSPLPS

**Q.** With `COc1ccc(S(=O)(=O)Nc2cccc(-c3csc4ccnc(N)c34)c2F)cc1C` [Cmpd 60, N-[3-(4-Amino-thieno[3,2-c]pyridin-3-yl)-2-fluoro-phenyl]-4-methoxy-3-methyl-benzenesulfonamide] as the molecule, how does the pIC50 read?
**A.** The pIC50 was “C (pIC50 < 6.8)”.
